# “Also recorded” adds a separate entry of the source.
# How the values were obtained:
# wild-type MEF = assay: Icmt-dependent growth inhibition, wild-type MEF; type: cell-based, mouse; settings: up to 100 μM
# Text: Oncrasin and Oncrasin Analogs. Chemically, Oncrasin-1 has the same core structure as indole-3-carbinol, a naturally occurring constituent of many plant foods that has been tested for the prevention and treatment of cancer (Brignall, 2001; Kelloff et al., 1996; Chinni et al., 2001). Oncrasin-1 also has structural similarity to sulindac (Taylor et al., 2000; Sun et al., 2002) and lonidamine (Ravagnan et al., 1999; Papaldo et al., 2003), both of which have been evaluated preclinically and clinically for treatment of cancers. […] Oncrasin compounds also bear a indole core structure as the small-molecule inhibitor of isoprenylcysteine carboxylmethyltransferase (Icmt), 2-[5-(3-methylphenyl)-1-octyl-1H-indol-3-yl]acetamide (cysmethynil), which also induces antitumor activity in Ras gene mutant cancer cells (Winter-Vann et al., 2005). […] Both wild-type MEF and Icmt−/− MEF (Bergo et al., 2004) (kindly provided by Dr. S G Young at the University of California, San Francisco) were resistant to Oncrasin-1.
# Raf-1 = assay: Western blot analysis of Raf-1 expression; type: cell-based, human; settings: listed as Oncrasin-1
# Procedure: Ras Signaling Pathway and Molecular Mechanisms of Oncrasin-induced apoptosis. To investigate molecular mechanisms of apoptosis induction by Oncrasin compounds, levels several proteins that are involved in apoptosis and/or involved in Ras signaling pathways were determined, including Bax, Bik, Bc12, Bcl-XL, Raf-1, B-Raf, Akt, Mst1 and atypical protein kinase C (aPKC) zeta and PKCiota. To study which molecules are affected by Oncrasin treatment, T29, T29Kt1 and H460 cells were treated with Oncrasin-1 at an optimal concentration, around IC60 to IC80 for T29Kt1 and H460 cells. Cell lysates were collected 12 h after the treatment and subjected to Western blot analysis.
# (§1) Suppression of Raf-1 expression by Oncrasin-1. […] To elucidate the roles of Raf-1 in Oncrasin-induced apoptosis, the inventors evaluated the expression of Raf-1 in H460 cells after treatment with different concentrations of Oncrasin-1. […] Because Raf-1 executes anti-apoptosis function via a variety of pathways. […] However, the resistance to Oncrasin-1 was more prominent in the constitutively active Raf-1-transfected cells than in cells with the wild-type Raf-1 (FIG. 10C and FIG. 10D).
# ASF/SF2 = assay: Antibody staining, subcellular localization of ASF/SF2; type: cell-based, human
# Text: Effects on RNA spliceosome. To investigate the nature of this PKCiota aggregates in the nucleus, the effect of Oncrasin-1 on SC35, a protein required for RNA splicing and assembly of spliceosome (Fu et al., 1992; Vellard et al., 1992), and on Rad51, a homologous DNA recombinase that involves in DNA repair (Benson et al., 1994; Baumann et al., 1996) were studied. […] and DNA repairing are the two important functions executed in the nucleus. In untreated or DMSO-treated cells, SC35 was localized in nucleus as speckles, either diffusely distributed or concentrated as granule clusters (Mistele et al., 1997), whereas Rad51 was more uniformly distributed inside the nucleus. […] This aggregation of SC35 was not observed in Oncrasin resistant T29 cells upon the treatment with Oncrasin-1. […] The effects of Oncrasin on another spliceosome protein, alternative splicing factor/splicing factor 2 (ASF/SF2), was studied (Krainer et al., 1991). […] In the resistant T29 cells, however, such an aggregation is not observed (FIG. 8C).
# [1] = tested on: H460 cells transfected with Raf-1 constructs; assay: SRB cell viability of H460 cells stably transfected with Raf-1 plasmids; type: cell-based, human; settings: vs parental H460
# Procedure: FIGS. 10A-10D Effect of Oncrasin-1 on Raf-1 expression. (FIG. 10A) H460 cells were treated with various concentrations of Oncrasin-1 and harvested 24 h later for Western blot analysis. (FIG. 10B) Reverse transcriptase-based polymerase chain reaction (RT-PCR) assay. H460 cells treated with 1 μM Oncrasin-1 for various times or at various concentrations for 24 h, as indicated. (+, −, positive and negative controls). […] (FIG. 10D) Dose effects of Oncrasin-1 on stable cell lines transfected with Raf-1 plasmids. Parental H460 cells and H460 cells transfected with wild-type Raf-1 (Raf-1), constitutive Raf-1 (Raf-1C), or dominant-negative Raf-1 Raf-1/DN) were treated with various concentrations of Oncrasin-1, and cell viability was determined by SRB assay.
# as §1
smiles,measurement,setting,value
"O=Cc1cn(Cc2ccc(Cl)cc2)c2ccccc12 [Oncrasin K001, 1H-Indole-3-carboxaldehyde, 1-[(4-chlorophenyl)methyl]-(9CI)]","growth inhibition, wild-type MEF",wild-type MEF,resistant
same,Raf-1 level in H460 cells,Raf-1,dramatically reduces raf-1; also recorded: down regulation; also recorded: dramatically reduced Raf-1 production; also recorded: dramatic reduction in Raf-1
same,"ASF/SF2 localization, T29Kt1 cells",ASF/SF2,induced ASF/SF2 aggregation inside nucleus
same,"ASF/SF2 aggregation, T29 cells",ASF/SF2; resistant cells,not observed
same,susceptibility of H460 cells transfected with dominant-negative Raf-1,[1],more sensitive
same,susceptibility of H460 cells transfected with wild-type or constitutively active Raf-1,[1],less susceptible than parental H460 cells
